Tests used:
[1] = target: T1, Muscarinic acetylcholine receptor M2 (Homo sapiens) (UniProt P08172); test: Antagonistic potency of compound towards Muscarinic acetylcholine receptor M2 in guinea pig left atrium; assay type: functional, tissue-based; settings: Cavia porcellus; Cardiac atrium; target entry is the homologue from another species
T1 sequence (whole entry): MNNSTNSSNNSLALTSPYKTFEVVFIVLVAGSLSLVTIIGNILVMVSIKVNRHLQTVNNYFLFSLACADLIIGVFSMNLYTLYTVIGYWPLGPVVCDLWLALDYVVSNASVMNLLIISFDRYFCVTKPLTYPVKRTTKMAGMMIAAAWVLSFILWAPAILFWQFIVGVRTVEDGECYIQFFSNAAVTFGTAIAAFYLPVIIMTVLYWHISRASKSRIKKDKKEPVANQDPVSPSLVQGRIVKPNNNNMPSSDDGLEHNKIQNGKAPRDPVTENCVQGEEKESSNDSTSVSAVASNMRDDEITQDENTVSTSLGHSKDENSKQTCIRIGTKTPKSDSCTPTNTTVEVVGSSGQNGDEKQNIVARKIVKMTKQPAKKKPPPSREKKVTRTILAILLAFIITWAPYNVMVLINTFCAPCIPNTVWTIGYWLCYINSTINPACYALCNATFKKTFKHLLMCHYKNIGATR

Acetylcholinesterase [2] = target: T2, Acetylcholinesterase (Homo sapiens, UniProt P22303)
T2 sequence (P22303 whole entry): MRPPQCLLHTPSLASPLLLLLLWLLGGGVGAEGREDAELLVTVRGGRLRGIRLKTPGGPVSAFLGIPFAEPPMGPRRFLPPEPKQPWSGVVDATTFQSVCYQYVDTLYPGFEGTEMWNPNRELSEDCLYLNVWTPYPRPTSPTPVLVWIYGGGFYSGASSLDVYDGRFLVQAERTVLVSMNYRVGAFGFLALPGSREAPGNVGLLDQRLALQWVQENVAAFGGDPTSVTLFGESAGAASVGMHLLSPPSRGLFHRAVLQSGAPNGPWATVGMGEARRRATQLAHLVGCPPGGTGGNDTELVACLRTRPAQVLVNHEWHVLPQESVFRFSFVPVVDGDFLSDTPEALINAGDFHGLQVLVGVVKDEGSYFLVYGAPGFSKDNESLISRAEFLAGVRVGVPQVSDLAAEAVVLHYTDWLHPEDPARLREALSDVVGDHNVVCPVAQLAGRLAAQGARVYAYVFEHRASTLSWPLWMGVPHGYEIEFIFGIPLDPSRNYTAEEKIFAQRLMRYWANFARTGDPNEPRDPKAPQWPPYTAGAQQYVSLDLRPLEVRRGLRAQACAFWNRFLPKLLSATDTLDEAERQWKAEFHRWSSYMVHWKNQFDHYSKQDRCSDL
Description: Inhibitory concentration against acetylcholinesterase from human erythrocytes

[3] = Apparent dissociation constant of compound was evaluated; assay type: ADME
Cholinesterase = Cholinesterase (Homo sapiens, UniProt P06276)
Sequence of Cholinesterase (P06276 whole entry): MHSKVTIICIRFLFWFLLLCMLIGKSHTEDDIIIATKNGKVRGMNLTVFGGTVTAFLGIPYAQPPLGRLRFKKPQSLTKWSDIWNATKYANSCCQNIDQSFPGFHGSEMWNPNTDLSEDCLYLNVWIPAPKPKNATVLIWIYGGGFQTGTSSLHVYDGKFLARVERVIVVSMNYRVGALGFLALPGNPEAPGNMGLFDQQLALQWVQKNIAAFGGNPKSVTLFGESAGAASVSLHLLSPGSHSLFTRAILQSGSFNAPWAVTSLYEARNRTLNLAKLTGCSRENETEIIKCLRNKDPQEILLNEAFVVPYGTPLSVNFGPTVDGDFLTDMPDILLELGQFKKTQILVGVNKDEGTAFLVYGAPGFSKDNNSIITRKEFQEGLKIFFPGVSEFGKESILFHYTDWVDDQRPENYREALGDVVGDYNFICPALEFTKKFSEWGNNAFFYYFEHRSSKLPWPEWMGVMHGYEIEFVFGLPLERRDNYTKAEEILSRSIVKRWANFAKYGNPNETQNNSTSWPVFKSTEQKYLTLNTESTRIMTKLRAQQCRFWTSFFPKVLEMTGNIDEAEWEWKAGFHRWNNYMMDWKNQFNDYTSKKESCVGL
Description: Inhibitory concentration against butyrylcholinesterase from human serum

Acetylcholinesterase [4] = target: T2, Acetylcholinesterase; remark: listed apart in the source
Description: Inhibitory concentration of compound against acetylcholinesterase from human erythrocytes at pH=7.0

Acetylcholinesterase [5] = target: T2, Acetylcholinesterase; remark: listed apart in the source
Description: Inhibitory concentration of compound against acetylcholinesterase from human erythrocytes at pH=8.0

Acetylcholinesterase [6] = target: T2, Acetylcholinesterase; remark: listed apart in the source
Description: Inhibitory concentration of compound against acetylcholinesterase from human erythrocytes at pH=7.5

Acetylcholinesterase [7] = target: T2, Acetylcholinesterase; remark: listed apart in the source
Description: Inhibitory activity of compound against acetylcholinesterase from human erythrocytes

Description for Cavia porcellus: Ability to reverse the D-tubocurarine-induced neuromuscular blockade in guinea pig left atrium

SMILES	pKb [1]	IC50 (Acetylcholinesterase [2]) [nM]	pKa [3]	IC50 (Cholinesterase) [nM]	pAI50 (Cavia porcellus)	IC50 (Acetylcholinesterase [4]) [nM]	IC50 (Acetylcholinesterase [5]) [nM]	IC50 (Acetylcholinesterase [6]) [nM]	Ki (Acetylcholinesterase [7]) [nM]
CCN(CCCCCC(=O)N(C)CCCCCCCCN(C)C(=O)CCCCCN(CC)Cc1ccccc1Cl)Cc1ccccc1Cl	5.61	112	6.92	4070	7.19	–	–	–	–
CCCOc1ccccc1CN(CC)CCCCCC(=O)N(C)CCCCCCCCN(C)C(=O)CCCCCN(CC)Cc1ccccc1OCCC	–	33.9	7.75	166	6.19	–	–	–	–
COc1ccc(CN(C)CCCCCC(=O)N(C)CCCCCCCCN(C)C(=O)CCCCCN(C)Cc2ccc(OC)cc2)cc1	–	5750	–	5500	–	–	–	–	–
CC[N+](C)(CCCCCC(=O)N(C)CCCCCCCCN(C)C(=O)CCCCC[N+](C)(CC)Cc1ccccc1C(F)(F)F)Cc1ccccc1C(F)(F)F (configuration not stated)	–	11.7	–	7590	–	–	–	–	–
COc1ccccc1CN(CCCCCC(=O)N(C)CCCCCCCCN(C)C(=O)CCCCCN(Cc1ccccc1OC)C(C)C)C(C)C	–	72.4	–	871	–	–	–	–	–
CCN(CCCCCC(=O)N(C)CCCCCCCCN(C)C(=O)CCCCCN(CC)Cc1ccccc1C(F)(F)F)Cc1ccccc1C(F)(F)F	< 5	4570	6.15	166000	6.84	–	–	–	–
CCN(CCCCCC(=O)N(C)CCCCCCCCN(C)C(=O)CCCCCN(CC)Cc1ccccc1C)Cc1ccccc1C	–	56.2	7.46	7410	6.35	–	–	–	–
CCCOc1ccccc1C[N+](C)(CC)CCCCCC(=O)N(C)CCCCCCCCN(C)C(=O)CCCCC[N+](C)(CC)Cc1ccccc1OCCC (configuration not stated)	–	17.4	–	83.2	–	–	–	–	–
CCN(CCCCCC(=O)N(CCCCCCCCN(C(=O)CCCCCN(CC)Cc1ccccc1OC)C(C)C)C(C)C)Cc1ccccc1OC	–	18.2	–	2140	–	–	–	–	–
CC[N+](C)(CCCCCC(=O)N(C)CCCCCCCCN(C)C(=O)CCCCC[N+](C)(CC)Cc1ccccc1OC)Cc1ccccc1OC (configuration not stated)	–	12	–	1410	7.21	11	12	11	–
CC[N+](C)(CCCCCC(=O)N(C)CCCCCCCCN(C)C(=O)CCCCC[N+](C)(CC)Cc1ccccc1C)Cc1ccccc1C (configuration not stated)	–	16.6	–	6460	–	–	–	–	–
CCN(CCCCCCOCCCCCCCCOCCCCCCN(CC)Cc1ccccc1OC)Cc1ccccc1OC	–	204	–	2630	–	–	–	–	–
COc1cccc(CN(C)CCCCCC(=O)N(C)CCCCCCCCN(C)C(=O)CCCCCN(C)Cc2cccc(OC)c2)c1	–	676	–	8320	–	–	–	–	–
CCN(CCCCCC(=O)N(C)CCCCCCCCN(C)C(=O)CCCCCN(CC)Cc1ccccc1OC)Cc1ccccc1OC	5.65	18.6	7.8	2240	6.45	16.2	18.6	17.4	12.2
CC[N+](C)(CCCCCC(=O)N(C)CCCCCCCCN(C)C(=O)CCCCC[N+](C)(CC)Cc1ccccc1[N+](=O)[O-])Cc1ccccc1[N+](=O)[O-] (configuration not stated)	–	12.3	–	2400	–	12.6	12.3	12.9	–
CC[N+](C)(CCCCCC(=O)N(C)CCCCCCCCN(C)C(=O)CCCCC[N+](C)(CC)Cc1ccccc1Cl)Cc1ccccc1Cl (configuration not stated)	–	19.5	–	2570	–	–	–	–	–
CC[N+](C)(CCCCCCOCCCCCCCCOCCCCCC[N+](C)(CC)Cc1ccccc1OC)Cc1ccccc1OC (configuration not stated)	–	77.6	–	759	–	–	–	–	–
CCN(CCCCCC(=O)N(C)CCCCCCCCN(C)C(=O)CCCCCN(CC)Cc1ccccc1)Cc1ccccc1	–	49	7.42	1070	6.32	–	–	–	–
COc1ccccc1CN(C)CCCCCC(=O)N(C)CCCCCCCCN(C)C(=O)CCCCCN(C)Cc1ccccc1OC [CAPROCTAMINE]	6.39	–	–	–	5.79	–	–	–	104
CNC(=O)Oc1ccc2c(c1)[C@]1(C)CCN(C)[C@@H]1N2C [PHYSOSTIGMINE]	–	–	–	–	6.5	–	–	–	–
CCN(CCCCCC(=O)N(C)CCCCCCCCN(C)C(=O)CCCCCN(CC)Cc1ccccc1[N+](=O)[O-])Cc1ccccc1[N+](=O)[O-]	–	794	6.26	55000	5.93	32.4	794	79.4	–
CC[N+](C)(CCCCCC(=O)N(C)CCCCCCCCN(C)C(=O)CCCCC[N+](C)(CC)Cc1ccccc1)Cc1ccccc1 (configuration not stated)	–	37.2	–	2510	–	–	–	–	–
CC[N+](C)(CCCCCC(=O)N(CCCCCCCCN(C(=O)CCCCC[N+](C)(CC)Cc1ccccc1OC)C(C)C)C(C)C)Cc1ccccc1OC (configuration not stated)	–	8.13	–	1660	–	–	–	–	–

From ChEMBL document CHEMBL1136713, “Structure-activity relationships of acetylcholinesterase noncovalent inhibitors based on a polyamine backbone. 2. Role of the substituents on the phenyl ring and nitrogen atoms of caproctamine” (J Med Chem, 2003)
